Measurements taken from patent publication EP0056144A1, “Carboxylic acid derivatives, their preparation and use as pharmaceuticals” (Dr. Karl Thomae GmbH, priority 1981, dated 1982).

Legend:
weiblichen Ratten = experiment: Blood-sugar-lowering effect in fasted female rats (glucose by hexokinase method); format: in vivo; design: key: n.s.: statistisch nicht signifikant; details: rats fasted 24 h
Excerpt: Die blutzuckersenkende Wirkung der zu untersuchenden Substanzen wurde an weiblichen Ratten eigener Zucht mit dem Gewicht von 180-220 g geprüft, welche 24 Stunden vor Versuchsbeginn nüchtern gesetzt wurden. Die zu untersuchenden Substanzen wurden unmittelbar vor Versuchsbeginn in 1,5%- iger Methylcellulose suspendiert und per Schlundsonde appliziert.
Die Blutentnahme erfolgte unmittelbar vor Substanzapplikation, sowie 1, 2, 3 und 4 Stunden danach jeweils aus dem retroorbitalen Venenplexus. Hiervon wurden jeweils 50 Fl mit 0,5 ml 0,33 N Perchlorsäure enteiweißt und zentrifugiert. Im überstand wurde Glukose nach der Hexokinase-Methode mit Hilfe eines Analysenphotometers bestimmt. Die statistische Auswertung erfolgte nach dem t-Test nach Student mit p = 0,05 als Signifikanzgrenze.
Die nachfolgende Tabelle enthält die gefundenen Werte in Prozent gegenüber Kontrolle: […]

[1] = tested on: weiblichen und männlichen Mäusen; experiment: Acute toxicity in mice after a single oral dose; format: in vivo; details: observation at least 7 days; for Tieren gestorben: single oral dose of 1 000 mg/kg; for orientierende Toxizität: single oral dose
Excerpt: Bei weiblichen und männlichen Mäusen eigener Zucht mit dem Gewicht von 20-26 g wurde die toxische Wirkung der Substanzen nach oraler Gabe (Suspension in 1%iger Methylcellulose) einer einmaligen Dosis bei einer Nachbeobachtungszeit von mindestens 7 Tagen geprüft. Die nachfolgende Tabelle enthält die gefundenen Werte: […]

[2] = 5 mg/kg by gavage, 1 hour after administration
[3] = 5 mg/kg by gavage, 2 hours after administration
[4] = 5 mg/kg by gavage, 3 hours after administration
[5] = 5 mg/kg by gavage, 4 hours after administration

Structure (SMILES)	Blutzuckersenkende Wirkung, Werte in Prozent gegenüber Kontrolle (weiblichen Ratten; 25 mg/kg by gavage, 1 hour after administration)	Blutzuckersenkende Wirkung, Werte in Prozent gegenüber Kontrolle (weiblichen Ratten; 25 mg/kg by gavage, 2 hours after administration)	Blutzuckersenkende Wirkung, Werte in Prozent gegenüber Kontrolle (weiblichen Ratten; 25 mg/kg by gavage, 3 hours after administration)	Blutzuckersenkende Wirkung, Werte in Prozent gegenüber Kontrolle (weiblichen Ratten; 25 mg/kg by gavage, 4 hours after administration)	Blutzuckersenkende Wirkung, Werte in Prozent gegenüber Kontrolle (weiblichen Ratten; [2]) [Prozent]	Blutzuckersenkende Wirkung, Werte in Prozent gegenüber Kontrolle (weiblichen Ratten; [3]) [Prozent]	Blutzuckersenkende Wirkung, Werte in Prozent gegenüber Kontrolle (weiblichen Ratten; [4]) [Prozent]	Blutzuckersenkende Wirkung, Werte in Prozent gegenüber Kontrolle (weiblichen Ratten; [5]) [Prozent]	Tieren gestorben [1] [von 10]	orientierende Toxizität [1]
CCNc1ccc(Cl)cc1C(=O)NCCc1ccc(C(=O)O)cc1 [Substanz E, 4-[2-(2-Äthylamino-5-chlor-benzoylamino)-äthyl]benzoesäure, reference compound]	n.s.	n.s.	n.s.	n.s.	–	–	–	–	–	–
O=C(O)c1ccc(CCNC(=O)c2cc(Cl)ccc2N2CCC3CCCC2C3)cc1 (stereo not drawn) [Substanz A, 4-[2-[2-(2-Azabicyclo[3.3.1]nonan-2-yl)-5-chlor-benzoyl-amino]-äthyl]benzoesäure]	–	–	–	–	-42	-43	-36	-32	–	–
Cc1ccc(N2CCCCCCCC2)c(C(=O)NCCc2ccc(C(=O)O)cc2)c1 [Substanz D, 4-[2-[5-Methyl-2-(octahydro-1H-azonino)-benzoylamino]-äthyl]-benzoesäure]	–	–	–	–	-30	-34	-35	-26	–	–
C[C@@H]1C[C@H](C)CN(c2ncc(Cl)cc2C(=O)NCCc2ccc(C(=O)O)cc2)C1 [Substanz C]	–	–	–	–	-37	-39	-40	-38	0	> 1 000 mg/kg
CCC(CC)C1CCN(c2ccc(Cl)cc2C(=O)O)CC1 [Substanz F, 5-Chlor-2-[4-(3-pentyl)-piperidino]benzoesäure]	–	–	–	–	–	–	–	–	0	> 1 000 mg/kg
O=C(O)c1ccc(CCNC(=O)c2cc(F)ccc2N2CCCCCCCC2)cc1 [Substanz B, 4-[2-[5-Fluor-2-(octahydro-1H-azonino)-benzoylamino]äthyl]-benzoesäure]	–	–	–	–	-31	-36	-34	-34	–	–
